Data as given in patent US12421243B2, “Pharmaceutically effective compounds inhibiting selectively the myosin 2 isoforms” (PRINTNET KERESKEDELMI ÉS SZOLGÁLTATÓ KFT., priority 2018, dated 2025).

Tests used:
[1] = molecular target: recombinant Dictyostelium miozin (Dictyostelium) (Dictyostelium discoideum, UniProt P08799); assay: actomyosin steady state ATPase measurement, Dictyostelium myosin; format: biochemical; settings: for IC50: concentration required for semi-maximal inhibition of ATPase, read-out: IC50 (μM) Dicty; for % inhibition. complete Dicty: maximum value of inhibition of ATPase activity; for inhibition at 5 µM: read-out: % inhibition at 5 μM (or 10 μM if racemate) Dicty; for inhibition at 50 µM: read-out: % inhibition at 50 μM (or 100 μM if racemate) Dicty
Source text: (§1) […]; (ii) the concentration required for semi-maximal inhibition.

[2] = molecular target: recombinant human non-muscle myosin 2 NM2A (Homo sapiens, UniProt P35579); assay: actomyosin steady state ATPase measurement, NM2A; format: biochemical; settings: for IC50: concentration required for semi-maximal inhibition of ATPase; for inhibition at 5 µM: read-out: % inhibition at 5 μM (or 10 μM if racemate) NM2A, 5 μM (10 μM if racemate); for inhibition at 5 µM / inhibition at 50 µM: ATPase activity; for inhibition at 50 µM: read-out: % inhibition at 50 μM (or 100 μM if racemate) NM2A, 50 μM (100 μM if racemate)
Source text: as §1

[3] = molecular target: recombinant human non-muscle myosin 2 NM2B (Homo sapiens, UniProt P35580); assay: actomyosin steady state ATPase measurement, NM2B; format: biochemical; settings: for IC50: concentration required for semi-maximal inhibition of ATPase; for % inhibition. complete NM2B: maximum value of inhibition of ATPase activity; for inhibition at 5 µM: read-out: % inhibition at 5 μM (or 10 μM if racemate) NM2B, 5 μM (10 μM if racemate); for inhibition at 5 µM / inhibition at 50 µM: ATPase activity; for inhibition at 50 µM: read-out: % inhibition at 50 μM (or 100 μM if racemate) NM2B, 50 μM (100 μM if racemate)
Source text: as §1

[4] = molecular target: recombinant human non-muscle myosin 2 NM2C (Homo sapiens, UniProt Q7Z406); assay: actomyosin steady state ATPase measurement, NM2C; format: biochemical; settings: for IC50: concentration required for semi-maximal inhibition of ATPase; for inhibition at 5 µM: read-out: % inhibition at 5 μM (or 10 μM if racemate) NM2C, 5 μM (10 μM if racemate); for inhibition at 5 µM / inhibition at 50 µM: ATPase activity; for inhibition at 50 µM: read-out: % inhibition at 50 μM (or 100 μM if racemate) NM2C, 50 μM (100 μM if racemate)
Source text: as §1

[5] = molecular target: T1, isolated porcine cardiac ventricular myocardium (cardiac) (Sus scrofa, UniProt P79293); assay: actomyosin steady state ATPase measurement, cardiac myosin; format: biochemical; settings: for IC50: concentration required for semi-maximal inhibition of ATPase; for % inhibition. complete cardiac: maximum value of inhibition of ATPase activity; for inhibition at 5 µM: read-out: % inhibition at 5 μM (or 10 μM if racemate) cardiac, 5 μM (10 μM if racemate); for inhibition at 5 µM / inhibition at 50 µM: ATPase activity; for inhibition at 50 µM: read-out: % inhibition at 50 μM (or 100 μM if racemate) cardiac, 50 μM (100 μM if racemate)
T1 construct: isolated porcine cardiac ventricular myocardium (cardiac); from tissue; host or cells: porcine cardiac ventricle
Source text: as §1

[6] = system: isolated rabbit skeletal muscle myosin (skeletal); assay: actomyosin steady state ATPase measurement, skeletal muscle myosin; format: biochemical; settings: for % inhibition at 5 μM (or 10 μM if racemate) Skeletal: 5 μM (10 μM if racemate); for % inhibition at 5 μM (or 10 μM if racemate) Skeletal / % inhibition at 50 μM (or 100 μM if racemate) Skeletal: ATPase activity; for % inhibition at 50 μM (or 100 μM if racemate) Skeletal: 50 μM (100 μM if racemate); for IC50: concentration required for semi-maximal inhibition of ATPase; for % inhibition. complete Skeletal: maximum value of inhibition of ATPase activity
Source text: as §1

[7] = molecular target: isolated smooth muscle myosin (UniProt P10587); format: biochemical, chamois; settings: concentration required for semi-maximal inhibition of ATPase
Source text: (ii) the concentration required for semi-maximal inhibition.

[8] = solubility in PBS in the presence of 1% DMSO; format: physicochemical; settings: phosphate buffered saline with 1% DMSO, aqueous buffer, kinetic from dmso stock, PBS w/o Mg, Ca
[9] = molecular target: isolated smooth muscle myosin (UniProt P10587); format: biochemical, chamois; settings: for % inhibition at 5 μM (or 10 μM if racemate) Smooth: 5 μM (10 μM if racemate); for % inhibition at 5 μM (or 10 μM if racemate) Smooth / % inhibition at 50 μM (or 100 μM if racemate) Smooth: ATPase activity; for % inhibition at 50 μM (or 100 μM if racemate) Smooth: 50 μM (100 μM if racemate); for % inhibition. complete Smooth: maximum value of inhibition of ATPase activity
[10] = system: M. quadriceps femoris; assay: isometric force measurement of live, anesthetized rat M. quadriceps femoris due to electrical stimulation; format: in vivo; settings: 6 mg i.p.
Description: (§2) The maximum isometric force induced by the stimulation was determined after intraperitoneal injection of some of the compounds of the invention. During the measurement, the following parameters of live anesthetized rats were continuously monitored: • a) heart rate • b) blood flow in the neck arteries • c) respiratory frequency • d) blood oxygen saturation ratio Results from live anesthetized rats are summarized in the table below.

[11] = vital parameters of live anesthetized rats monitored during isometric force measurement; format: in vivo; settings: 6 mg i.p., anesthetized rat
Description: as §2, with “ratio” for “ratio Results from live anesthetized rats are summarized in the table below.”

[12] = system: myosin 2; settings: myosin 2 inhibitors, review data; cited from earlier work
[13] = system: skeletal muscle myosin 2; settings: skeletal muscle myosin 2; binds weakly; cited from earlier work
[14] = maximum value of inhibition of ATPase activity

T1 sequence (P79293 whole entry): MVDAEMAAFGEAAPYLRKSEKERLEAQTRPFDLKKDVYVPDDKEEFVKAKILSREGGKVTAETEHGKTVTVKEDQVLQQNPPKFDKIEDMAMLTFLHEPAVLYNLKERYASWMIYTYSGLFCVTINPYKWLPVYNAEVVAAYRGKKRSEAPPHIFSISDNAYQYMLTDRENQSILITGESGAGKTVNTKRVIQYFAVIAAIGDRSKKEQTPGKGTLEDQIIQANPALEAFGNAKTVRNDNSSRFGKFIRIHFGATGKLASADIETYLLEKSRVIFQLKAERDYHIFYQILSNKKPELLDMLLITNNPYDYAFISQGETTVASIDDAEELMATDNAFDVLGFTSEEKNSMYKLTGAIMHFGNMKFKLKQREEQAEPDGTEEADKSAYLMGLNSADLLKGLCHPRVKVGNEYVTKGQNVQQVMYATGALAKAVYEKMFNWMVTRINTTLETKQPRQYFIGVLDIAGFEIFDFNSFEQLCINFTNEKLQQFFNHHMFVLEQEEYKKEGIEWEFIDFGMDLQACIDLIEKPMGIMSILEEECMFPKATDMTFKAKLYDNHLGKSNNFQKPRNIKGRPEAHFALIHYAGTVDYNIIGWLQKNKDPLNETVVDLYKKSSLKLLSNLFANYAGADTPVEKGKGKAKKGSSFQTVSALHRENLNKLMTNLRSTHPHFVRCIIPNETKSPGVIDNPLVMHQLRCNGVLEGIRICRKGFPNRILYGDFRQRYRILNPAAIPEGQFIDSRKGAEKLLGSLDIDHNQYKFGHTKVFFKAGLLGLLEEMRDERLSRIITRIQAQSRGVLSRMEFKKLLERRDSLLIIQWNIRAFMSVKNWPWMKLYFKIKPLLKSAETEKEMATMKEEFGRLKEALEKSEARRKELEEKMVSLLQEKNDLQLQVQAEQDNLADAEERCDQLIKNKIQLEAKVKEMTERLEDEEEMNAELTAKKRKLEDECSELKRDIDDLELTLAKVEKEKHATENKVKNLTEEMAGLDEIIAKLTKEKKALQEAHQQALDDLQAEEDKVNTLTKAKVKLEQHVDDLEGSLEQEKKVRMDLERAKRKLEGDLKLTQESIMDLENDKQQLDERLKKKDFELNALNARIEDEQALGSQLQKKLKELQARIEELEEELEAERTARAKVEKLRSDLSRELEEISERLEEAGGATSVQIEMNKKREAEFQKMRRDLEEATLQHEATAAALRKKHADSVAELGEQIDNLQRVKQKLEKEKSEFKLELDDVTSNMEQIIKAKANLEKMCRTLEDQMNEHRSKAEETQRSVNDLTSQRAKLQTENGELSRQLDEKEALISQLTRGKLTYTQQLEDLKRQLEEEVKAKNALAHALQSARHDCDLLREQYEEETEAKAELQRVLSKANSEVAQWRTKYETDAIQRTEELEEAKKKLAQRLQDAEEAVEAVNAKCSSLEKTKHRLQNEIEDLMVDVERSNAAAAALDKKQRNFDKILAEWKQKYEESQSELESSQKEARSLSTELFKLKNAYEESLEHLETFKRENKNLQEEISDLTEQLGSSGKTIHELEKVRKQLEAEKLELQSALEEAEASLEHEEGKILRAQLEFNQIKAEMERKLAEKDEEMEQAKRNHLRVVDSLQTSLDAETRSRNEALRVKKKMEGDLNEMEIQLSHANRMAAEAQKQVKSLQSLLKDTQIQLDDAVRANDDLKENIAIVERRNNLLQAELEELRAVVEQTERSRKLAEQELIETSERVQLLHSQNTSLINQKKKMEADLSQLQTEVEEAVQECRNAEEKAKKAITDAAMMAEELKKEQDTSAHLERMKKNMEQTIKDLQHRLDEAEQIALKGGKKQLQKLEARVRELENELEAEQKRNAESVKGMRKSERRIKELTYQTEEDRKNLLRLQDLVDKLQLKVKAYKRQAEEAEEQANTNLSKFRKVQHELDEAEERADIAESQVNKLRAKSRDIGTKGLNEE
recombinant human non-muscle myosin 2 NM2A, sequence (P35579 whole entry): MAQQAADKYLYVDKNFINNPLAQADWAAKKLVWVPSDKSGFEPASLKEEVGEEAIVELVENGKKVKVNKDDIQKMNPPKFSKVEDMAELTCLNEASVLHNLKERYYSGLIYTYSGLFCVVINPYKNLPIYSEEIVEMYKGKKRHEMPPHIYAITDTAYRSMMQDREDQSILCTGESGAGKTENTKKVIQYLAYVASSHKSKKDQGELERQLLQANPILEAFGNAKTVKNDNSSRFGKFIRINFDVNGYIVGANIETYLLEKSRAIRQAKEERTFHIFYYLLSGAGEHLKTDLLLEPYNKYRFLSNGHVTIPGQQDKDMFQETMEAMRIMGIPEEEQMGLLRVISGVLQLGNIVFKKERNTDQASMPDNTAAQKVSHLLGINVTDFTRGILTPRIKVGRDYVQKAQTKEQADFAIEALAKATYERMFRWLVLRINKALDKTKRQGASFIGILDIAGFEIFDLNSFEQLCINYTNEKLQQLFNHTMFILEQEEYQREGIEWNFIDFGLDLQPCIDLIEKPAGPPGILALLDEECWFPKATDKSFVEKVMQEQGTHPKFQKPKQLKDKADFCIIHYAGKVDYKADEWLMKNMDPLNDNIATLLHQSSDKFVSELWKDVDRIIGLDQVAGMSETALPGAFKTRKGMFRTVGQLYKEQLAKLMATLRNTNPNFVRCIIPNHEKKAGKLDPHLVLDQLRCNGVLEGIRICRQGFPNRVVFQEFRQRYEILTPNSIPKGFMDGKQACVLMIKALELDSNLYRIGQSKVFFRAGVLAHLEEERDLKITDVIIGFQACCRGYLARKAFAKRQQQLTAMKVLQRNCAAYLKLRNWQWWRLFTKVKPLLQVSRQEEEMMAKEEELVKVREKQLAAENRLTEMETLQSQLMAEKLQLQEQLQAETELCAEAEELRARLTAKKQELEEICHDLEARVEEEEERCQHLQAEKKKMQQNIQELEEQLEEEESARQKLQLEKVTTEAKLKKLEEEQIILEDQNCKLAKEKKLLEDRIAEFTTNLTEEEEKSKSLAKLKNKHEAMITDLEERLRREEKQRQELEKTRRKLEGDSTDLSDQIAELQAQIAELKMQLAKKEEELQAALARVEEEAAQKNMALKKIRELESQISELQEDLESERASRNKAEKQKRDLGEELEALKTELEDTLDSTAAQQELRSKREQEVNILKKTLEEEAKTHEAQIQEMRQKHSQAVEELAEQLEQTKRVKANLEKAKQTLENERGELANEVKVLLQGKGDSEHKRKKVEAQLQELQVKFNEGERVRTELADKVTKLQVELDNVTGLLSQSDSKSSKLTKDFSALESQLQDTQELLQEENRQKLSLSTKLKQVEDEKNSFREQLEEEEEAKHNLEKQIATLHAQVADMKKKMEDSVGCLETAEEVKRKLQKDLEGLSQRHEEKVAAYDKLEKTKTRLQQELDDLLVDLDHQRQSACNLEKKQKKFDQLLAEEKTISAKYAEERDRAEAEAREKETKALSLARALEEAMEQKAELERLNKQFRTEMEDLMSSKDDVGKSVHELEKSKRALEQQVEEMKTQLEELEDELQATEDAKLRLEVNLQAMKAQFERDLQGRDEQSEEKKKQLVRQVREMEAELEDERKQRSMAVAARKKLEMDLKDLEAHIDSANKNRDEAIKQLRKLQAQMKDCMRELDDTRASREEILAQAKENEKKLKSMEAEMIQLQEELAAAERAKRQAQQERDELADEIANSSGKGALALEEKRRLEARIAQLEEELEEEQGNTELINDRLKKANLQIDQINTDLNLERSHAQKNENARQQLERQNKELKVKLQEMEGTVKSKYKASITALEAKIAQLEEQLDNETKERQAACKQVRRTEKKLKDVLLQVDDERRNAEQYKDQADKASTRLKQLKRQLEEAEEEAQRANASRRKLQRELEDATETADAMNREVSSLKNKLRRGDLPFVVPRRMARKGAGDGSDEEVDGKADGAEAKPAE

Structure (SMILES) | IC50 [1] | % inhibition. complete Dicty [1] | inhibition at 5 µM [1] | inhibition at 50 µM [1] | IC50 [2] | inhibition at 5 µM [2] | inhibition at 50 µM [2] | IC50 [3] | % inhibition. complete NM2B [3] | inhibition at 5 µM [3] | inhibition at 50 µM [3] | IC50 [4] | inhibition at 5 µM [4] | inhibition at 50 µM [4] | IC50 [5] | % inhibition. complete cardiac [5] | inhibition at 5 µM [5] | inhibition at 50 µM [5] | % inhibition at 5 μM (or 10 μM if racemate) Skeletal [6] | % inhibition at 50 μM (or 100 μM if racemate) Skeletal [6] | other results
O=C1c2ccsc2N=C2N(c3ccccc3)CCC12O (stereo not drawn) [Compound 180, 9-Hydroxy-12-phenyl-4-thia-2,12-diazatricyclo[7.3.0.0^3,7]dodeca-1,3(7),5-trien-8-one] | 13.1 µM | 85% | 22% | 67% | 9.8 µM | 15% | 44% | 18.7 µM | 60% | 14% | 44% | 9.3 µM | 20% | 55% | 5.1 µM | 89% | 42% | 81% | 87% | 96% | Inhibition (%) NM2A ([2]; maximum inhibition, compounds in IC50 range 5-10 μM): 48%; % inhibition. complete NM2A [2, 14]: 48%; % inhibition. complete NM2C [4, 14]: 60%; Inhibition (%) cardiac ([5]; maximum inhibition, compounds in IC50 range 3-6 μM): 89%; IC50 [6]: 0.81 µM; % inhibition. complete Skeletal [6]: 99%; IC50 [7]: 14 µM; solubility [8]: 2400 µM; % inhibition at 5 μM (or 10 μM if racemate) Smooth [9]: 16%; % inhibition at 50 μM (or 100 μM if racemate) Smooth [9]: 38%; % inhibition. complete Smooth [9]: 58%
O=C1c2ccncc2N=C2N(c3ccccc3)CCC12O (stereo not drawn) [Compound 174, 3a-Hydroxy-1-phenyl-1H,2H,3H,3aH,4H-pyrrolo[2,3-b]1,7-naphthyridin-4-one] | 10 µM | 20% | 7% | 17% | 1 µM | 12% | 9% | 15 µM | 12% | 2% | 9% | 2 µM | 7% | 9% | > 100 µM | 100% | 2% | 15% | 25% | 77% | Inhibition (%) Dicty ([1]; maximum inhibition, compounds in IC50 range 1-11 μM): 20%; IC50 [6]: 17 µM; % inhibition. complete Skeletal [6]: 100%; IC50 [7]: > 100 µM; Maximum change in isometric force at rear leg (%) [10]: 25%; Maximum change of vital parameters (%) heart rate [11]: 3%; Maximum change of vital parameters (%) oxygen saturation [11]: −19%; Maximum change of vital parameters (%) respiratory frequency [11]: −20%; Maximum change of vital parameters (%) blood flow ([11]; neck arteries): 4%; solubility [8]: ≥ 1000 µM; % inhibition at 5 μM (or 10 μM if racemate) Smooth [9]: 1%; % inhibition at 50 μM (or 100 μM if racemate) Smooth [9]: 6%; % inhibition. complete Smooth [9]: 51%
CC(=O)/C(C)=N/O [BDM, 2,3-butanedione monoxime] |  |  |  |  |  |  |  |  |  |  |  |  |  |  |  |  |  |  |  |  | Binding strength [12]: ~5 mM; IC50 [13]: ~5000 µM
